# In ChEMBL document CHEMBL4007471, “Assessment of new triplet forming artificial nucleobases as RNA ligands directed towards HCV IRES IIId loop” (Bioorg Med Chem Lett, 2017):
# Legend:
# [1] = target: Internal ribosome entry site (IRES); assay: Binding affinity to HCV 5'-Alexa488-labeled IRES domain 3 loop RNA at 20 degC after overnight incubation by fluorescence assay; design: species or system Hepacivirus hominis
# [2] = target: Internal ribosome entry site (IRES); assay: Binding affinity to HCV 5'-Alexa488-labeled IRES domain 3 loop RNA at 5 degC after overnight incubation by fluorescence assay; design: species or system Hepacivirus hominis
# [3] = target: Internal ribosome entry site (IRES); assay: Binding affinity to HCV 5'-Alexa488-labeled IRES domain 3 loop RNA at 10 degC after overnight incubation by fluorescence assay; design: species or system Hepacivirus hominis
# [4] = target: Internal ribosome entry site (IRES); assay: Binding affinity to HCV 5'-Alexa488-labeled IRES domain 3 loop RNA at 15 degC after overnight incubation by fluorescence assay; design: species or system Hepacivirus hominis
# [5] = target: Internal ribosome entry site (IRES); assay: Binding affinity to HCV 5'-Alexa488-labeled IRES domain 3 loop RNA at 30 degC after overnight incubation by fluorescence assay; design: species or system Hepacivirus hominis
# [6] = target: Internal ribosome entry site (IRES); assay: Binding affinity to HCV 5'-Alexa488-labeled IRES domain 3 loop RNA at 36 degC after overnight incubation by fluorescence assay; design: species or system Hepacivirus hominis
# [7] = test system: Internal ribosome entry site (IRES); assay: Potency index, ratio of neomycin Kd to compound Kd for HCV 5'-Alexa488-labeled IRES domain 3 loop RNA at 20 degC; settings: Hepacivirus hominis
# [8] = test system: Internal ribosome entry site (IRES); assay: Binding affinity to HCV 5'-Alexa488-labeled IRES domain 3 loop RNA assessed as gibbs free energy change after overnight incubation by fluorescence assay; settings: Hepacivirus hominis
# [9] = test system: Internal ribosome entry site (IRES); assay: Binding affinity to HCV 5'-Alexa488-labeled IRES domain 3 loop RNA assessed as change in enthalpy after overnight incubation by fluorescence assay; settings: Hepacivirus hominis
# [10] = test system: Internal ribosome entry site (IRES); assay: Binding affinity to HCV 5'-Alexa488-labeled IRES domain 3 loop RNA assessed as change in entropy after overnight incubation by fluorescence assay; settings: Hepacivirus hominis
# [11] = target: Internal ribosome entry site (IRES); assay: Binding affinity to HCV IRES 5'Alexa488-GCCGAGGAGUGUUGGGUCGCGCAAGGC-3' RNA at 20 degC after overnight incubation by fluorescence assay; design: species or system Hepacivirus hominis
# [12] = target: Internal ribosome entry site (IRES); assay: Binding affinity to HCV 5'-Alexa488-labeled IRES domain 3 loop RNA at 20 degC after overnight incubation in presence of 50-fold excess of tRNA by fluorescence assay; design: species or system Hepacivirus hominis
# [13] = test system: Internal ribosome entry site (IRES); assay: Selectivity ratio of Kd for HCV IRES 5'Alexa488-GCCGAGGAGUGUUGGGUCGCGCAAGGC-3' RNA at 20 degC to Kd for HCV 5'-Alexa488-labeled IRES domain 3 loop RNA at 20 degC; settings: Hepacivirus hominis
# [14] = test system: Internal ribosome entry site (IRES); assay: Selectivity ratio of Kd for 5'-Alexa488-labeled IRES domain 3 loop RNA in presence of 50-fold excess of tRNA at 20 degC to Kd for HCV 5'-Alexa488-labeled IRES domain 3 loop RNA at 20 degC; settings: Hepacivirus hominis
SMILES,Kd ([1]; read-out: Kd) [µM],Kd ([2]; read-out: Kd) [µM],Kd ([3]; read-out: Kd) [µM],Kd ([4]; read-out: Kd) [µM],Kd ([5]; read-out: Kd) [µM],Kd ([6]; read-out: Kd) [µM],deltaG [8] [kcal/mol],deltaH [9] [kcal/mol],TdeltaS [10] [kcal/mol],Kd [1],Kd [5],Kd [6],further results
CC(=O)Nc1nccc(-c2cccc(NC(=O)[C@@H](N)CCCCN)c2)n1,4.3,3.2,3.4,3.8,6.2,8.6,-7.17,-6.14,1.03,,,,Ratio [7]: 2; Kd ([11]; read-out: Kd): 554 µM; Kd [12]: 10.5 µM; Selectivity ratio [13]: > 100; Selectivity ratio [14]: 2.4
CC(=O)Nc1nccc(-c2cccc(NC(=O)[C@@H](N)Cc3c[nH]cn3)c2)n1,19.7,8.6,11.8,15,50.8,262,-6.19,-11.6,-5.4,,,,
NCC(=O)NCC(=O)Nc1nc2ccccc2[nH]1,,,,,,,,,,Not Active,Not Active,Not Active,Kd [2]: Not Active; Kd [3]: Not Active; Kd [4]: Not Active
CC(=O)Nc1nccc(-c2cccc(N)c2)n1,,,,,,,,,,Not Active,,,
CC(=O)Nc1nccc(-c2cccc(NC(=O)c3nccnc3N)c2)n1,232,81.5,138,158,,,,,,,Not Active,Not Active,
CC(=O)Nc1nccc(-c2cccc(NC(=O)CCCN(C)C)c2)n1,36.9,29.5,31.5,34.8,38.4,32.5,-6.02,-1.91,4.11,,,,
CC(=O)Nc1nccc(-c2cccc(NC(=O)CCCN)c2)n1,220,102,122,159,,,,,,,Not Active,Not Active,
CC(=O)Nc1nccc(-c2cccc(NC(=O)CN)c2)n1,863,177,284,438,,,,,,,Not Active,Not Active,
CC(=O)Nc1nccc(-c2cccc(NC(=O)c3cccnc3)c2)n1,659,137,290,360,,,,,,,Not Active,Not Active,
NCCCC[C@H](N)C(=O)O [LYSINE],,,,,,,,,,Not Active,,,

# Continued, in another order:
Kd ([1]; read-out: Kd) [µM],Kd ([2]; read-out: Kd) [µM],Kd ([3]; read-out: Kd) [µM],Kd ([4]; read-out: Kd) [µM],Kd ([5]; read-out: Kd) [µM],Kd ([6]; read-out: Kd) [µM],deltaG [8] [kcal/mol],deltaH [9] [kcal/mol],TdeltaS [10] [kcal/mol],Kd [1],Kd [5],Kd [6],SMILES,further results
11.8,10.8,11.1,11.4,12,11.4,-6.62,-0.741,5.88,,,,CC(=O)Nc1nccc(-c2cccc(NC(=O)CCCCCN)c2)n1,Kd [11]: Not Active; Kd [12]: 17.1 µM; Selectivity ratio [14]: 1.4
8.5,5.7,6.1,6.5,15.6,24.1,-6.72,-9.51,-2.8,,,,NCC1O[C@H](O[C@H]2[C@@H](O)[C@H](O[C@H]3[C@H](O)[C@@H](N)C[C@@H](N)[C@@H]3O[C@H]3O[C@H](CN)[C@@H](O)[C@H](O)[C@H]3N)O[C@@H]2CO)[C@H](N)[C@@H](O)[C@@H]1O (stereo partly specified),
,,,,,,,,,Not Active,Not Active,Not Active,NCCCCCC(=O)NCC(=O)Nc1nc2ccccc2[nH]1,Kd [2]: Not Active; Kd [3]: Not Active; Kd [4]: Not Active; Kd ([11]; read-out: Kd): 41.4 µM
,,,,,,,,,Not Active,Not Active,Not Active,NCCCC(=O)NCC(=O)Nc1nc2ccccc2[nH]1,Kd [2]: Not Active; Kd [3]: Not Active; Kd [4]: Not Active
16.8,9.4,11.6,14.2,27.7,42.6,-6.33,-8.08,-1.74,,,,CC(=O)Nc1nccc(-c2cccc(NC(=O)CCCCCNC(=O)[C@@H](N)CN)c2)n1,
10.1,5.1,6.5,7.6,18.4,30.1,-6.64,-9.63,-2.99,,,,CC(=O)Nc1nccc(-c2cccc(NC(=O)[C@@H](N)CN)c2)n1,
